Assays:
[1] = tested on: recA-lacZ transcriptional fusion (SOS response); assay: SOS induction, recA-lacZ β-galactosidase; type: cell-based, Staphylococcus aureus; conditions: 2 μg/ml; after 210 minutes; LB, 37°C
Protocol: To test whether the cessation of DNA accumulation was accompanied by induction of the SOS response we measured the effects of both peptides on induction of the recA gene. Strain MTC157 contains a recA-lacZ transcriptional fusion in its chromosome. […] The level of induction was less that that observed for the DNA damaging agent mitomycin C (about 3-fold increase after 210 minutes). It is likely that both peptides results in malfunctioning of the replisome, and this provides the signal for SOS induction in these cells.
Figure 6 Peptide III-5 and III-6 induces the SOS response in S. aureus. S. aureus strain MTH157 (recA::lacZ) was grown exponentially in LB medium at 37°C. At an optical density OD600 = 0.1, Mitomycin C or Peptides III-5/III-6 were added to final concentrations of 2 μg/ml or 50 μg/ml, respectively. At the times indicated, samples were taken and the level of β-galactosidase determined (Materials and Methods).

[2] = tested on: E. coli; assay: Intracellular expression of cyclic DnaA1-86 in E. coli (growth, morphology); type: cell-based, Escherichia coli; conditions: IntC::DnaA1-86::IntN induced with 2 mM IPTG, 30°C; effect attributed mainly to the cyclic fragment
Protocol: We used the SICLOPPS technology for intracellular synthesis of cyclic peptide libraries. Cyclic peptides were chosen over their linear counterparts to limit degradation by cellular proteases. We initially tested the SICLOPPS system by inserting the coding region for amino acids 1−86 (Domain I) of DnaA from E.coli between the C- and N-terminal parts of the split intein.
Figure 2 Intracellular production of cyclic DnaA1-86. Expression of IntC::DnaA1−86::IntN was induced by addition of 2 mM IPTG to cells growing exponentially at 30°C or by plating exponential growing cells on plates containing 2 mM IPTG followed by incubation at 30C. A. Intein-DnaA precursor and splice products were visualized by Western blot using polyclonal anti-DnaA antibodies. B. Growth on LB plates containing 2 mM IPTG (top) and phase-contrast images (bottom) of expressing IntC::IntN (left) or after three hours expression of IntC::DnaA1−86::IntN (right).
Because all cells contained a mix of precursor and splice product it was not clear which species were responsible for filamentation. We therefore mutated the splice site at the IntC-DnaA1−86 (IntC-HNS-DnaA1−86 to IntC-QYS-DnaA1−86) junction to prevent splicing.

| Molecule | Increase in β-galactosidase activity (recA-lacZ) [1] | Effect of intracellular expression on E. coli growth and morphology [2] |
| --- | --- | --- |
| CO[C@@]12[C@H](COC(N)=O)C3=C(C(=O)C(C)=C(N)C3=O)N1C[C@@H]1N[C@@H]12 [mitomycin C] | about 3 fold |  |
| cyclic DnaA1−86: spliced cyclic fragment of amino acids 1−86 (Domain I) of E. coli DnaA produced by SICLOPPS (protein, UniProt P03004 1-86, looked up, fragment, cyclized by SICLOPPS, spliced cyclic fragment of amino acids 1−86 (Domain I) of E. coli DnaA produced by SICLOPPS) MSLSLWQQCLARLQDELPATEFSMWIRPLQAELSDNTLALYAPNRFVLDWVRDKYLNNINGLLTSFCGADAPQLRFEVGTKPVTQT |  | inhibition of growth and cell filamentation |
